Key:
[1] = molecular target: T1, HDAC1 enzyme (Homo sapiens, UniProt Q13547); test: In vitro HDAC assay for determination of IC50 values (BIOMOL fluorescent-based HDAC activity assay); type: biochemical; conditions: recombinant GST-HDAC1, 500 uM Flur de lys substrate, room temperature 2 h; read-out: IC50 (HDAC 1)
T1 construct: Amplification of human HDAC1 coding region from this cDNA library was cloned separately into the baculovirus expression pDEST20 vector; made in house; host or cells: SF9 insect cells (baculovirus, pDEST20 vector)
Procedure: Human cDNA library was prepared using cultured SW620 cells. Amplification of human HDAC1 coding region from this cDNA library was cloned separately into the baculovirus expression pDEST20 vector (GATEWAY Cloning Technology, Invitrogen Pte Ltd). The pDEST20-HDAC1 construct was confirmed by DNA sequencing. Recombinant baculovirus was prepared using the Bac-To-Bac method following the manufacturer's instruction (Invitrogen Pte Ltd).
Expression of GST-HDAC1 was done by infecting SF9 cells (Invitrogen Pte Ltd) with pDEST20-HDAC1 baculovirus at MOI=1 for 48 h. Soluble cell lysate was incubated with pre-equilibrated Glutathione Sepharose 4B beads (Amersham) at 4°C for 2 h. The beads were washed with PBS buffer for 3 times. The GST-HDAC1 protein was eluted by elution buffer containing 50 mM Tris, pH8.0, 150mM NaCl, 1% Triton X-100 and 10mM or 20mM reduced Glutathione. The purified GST-HDAC1 protein was dialyzed with HDAC storage buffer containing 10mM Tris, pH7.5, 100mM NaCl and 3mM MgCl2. 20% Glycerol was added to purified GST-HDAC1 protein before storage at -80°C.
The assay has been carried out in 96 well format and the BIOMOL fluorescent-based HDAC activity assay has been applied. The reaction composed of assay buffer, containing 25 mM Tris pH 7.5, 137 mM NaCl, 2.7 mM KCl, 1 mM MgCl2, 1 mg/ml BSA, tested compounds, an appropriate concentration of HDAC1 enzyme, 500 uM Flur de lys generic substrate for HDAC1 enzyme and subsequently was incubated at room temperature for 2 h. Flur de lys Developer was added and the reaction was incubated for 10 min. Briefly, deacetylation of the substrate sensitizes it to the developer, which then generates a fluorophore. The fluorophore is excited with 360 nm light and the emitted light (460 nm) is detected on a fluorometric plate reader (Tecan Ultra Microplate detection system, Tecan Group Ltd.).
The analytical software, Prism 4.0 (GraphPad Software Inc) has been used to generate IC50 from a series of data. IC50 is defined as the concentration of compound required for 50% inhibition of HDAC enzyme activity.

[2] = system: Colo205 cells; test: Cell-based proliferation assay for determination of GI50 values (CyQUANT); design: species or system Human; conditions: Homo sapiens, COLO 205, compound treatment 96 h, concentration for 50% inhibition of cell growth, read-out: Gl50 (Colo205)
Procedure: Human cancer cell lines (e.g. Colo205) were obtained from ATCC. Colo205 cells were cultivated in RPMI 1640 containing 2 mM L-Glutamine, 5% FBS, 1.0 mM Na Pyruvate. Colo205 cells were seeded in 96-wells plate at 5000 cells per well. The plates were incubated at 37°C, 5% CO2, for 24 h. Cells were treated with compounds at various concentrations for 96 h. Cell growth was then monitored using CyQUANT® cell proliferation assay (Invitrogen Pte Ltd). Dose response curves were plotted to determine Gl50 values for the compounds using XL-fit (ID Business Solution, Emeryville, CA). Gl50 is defined as the concentration of compound required for 50% inhibition of cell growth.

T1 sequence (Q13547 whole entry): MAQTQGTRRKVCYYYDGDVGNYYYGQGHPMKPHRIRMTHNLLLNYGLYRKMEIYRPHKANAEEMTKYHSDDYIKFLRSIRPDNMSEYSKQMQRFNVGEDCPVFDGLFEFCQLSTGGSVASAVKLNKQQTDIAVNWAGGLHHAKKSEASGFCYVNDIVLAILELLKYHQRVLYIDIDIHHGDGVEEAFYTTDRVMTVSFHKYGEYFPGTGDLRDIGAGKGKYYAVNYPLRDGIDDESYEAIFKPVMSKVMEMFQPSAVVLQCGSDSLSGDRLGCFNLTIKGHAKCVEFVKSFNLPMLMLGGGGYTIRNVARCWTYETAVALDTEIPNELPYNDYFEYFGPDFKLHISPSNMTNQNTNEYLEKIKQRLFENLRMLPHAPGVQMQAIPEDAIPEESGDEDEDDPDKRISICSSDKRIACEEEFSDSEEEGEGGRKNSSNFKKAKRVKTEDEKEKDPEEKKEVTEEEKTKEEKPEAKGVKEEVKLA

SMILES | IC50 [1] | IC50 [2]
CCCN(CC)Cc1c(C)nc2cc(C=CC(=O)NO)ccn12 [Compound 30, 3-{3-[(Ethyl-propyl-amino)-methyl]-2-methyl-imidazo[1,2-a]pyridin-7-yl}-N-hydroxy-acrylamide] | 0.54 µM | 4.6 µM
CCC(CC)CN(CC)Cc1c(C)nc2cc(C=CC(=O)NO)ccn12 [Compound 31, 3-(3-{[Ethyl-(2-ethyl-butyl)-amino]-methyl}-2-methyl-imidazo[1,2-a]pyridin-7-yl)-N-hydroxy-acrylamide] | 0.01 µM | 0.05 µM
CCCN(Cc1c(C(C)(C)C)nc2cc(C=CC(=O)NO)ccn12)C(C)C [Compound 32, 3-{2-tert-Butyl-3-[(isopropyl-propyl-amino)-methyl]-imidazo[1,2-a]pyridin-7-yl}-N-hydroxy-acrylamide] | 0.3 µM | 2.5 µM
CN(Cc1c(C(C)(C)C)nc2cc(/C=C/C(=O)NO)ccn12)CC(C)(C)C [Compound 33, 3-(-tert-Butyl-3-{[(2,2-dimethyl-propyl)-methyl-amino]-methyl}-imidazo[1,2-a]pyridin-7-yl)-N-hydroxy-acrylamide] | 0.78 µM | 6.3 µM
CCCCN(C)Cc1c(C(C)(C)C)nc2cc(C=CC(=O)NO)ccn12 [Compound 34, 3-{2-tert-Butyl-3-[(butyl-methyl-amino)-methyl]-imidazo[1,2-a]pyridin-7-yl}-N-hydroxy-acrylamide] | 0.22 µM | 1.7 µM
CCC(CC)CN(C)Cc1c(C(C)(C)C)nc2cc(C=CC(=O)NO)ccn12 [Compound 35, 3-(2-tert-Butyl-3-{[(2-ethyl-butyl)-methyl-amino]-methyl}-imidazo[1,2-a]pyridin-7-yl)-N-hydroxy-acrylamide] | 0.41 µM | 2.3 µM
CC(C)CCN(C)Cc1c(C(C)(C)C)nc2cc(C=CC(=O)NO)ccn12 [Compound 36, 3-(2-tert-Butyl-3-{[methyl-(3-methyl-butyl)-amino]-methyl}-imidazo[1,2-a]pyridin-7-yl)-N-hydroxy-acrylamide] | 0.35 µM | 0.9 µM
CN(CCC(C)(C)C)Cc1c(C(C)(C)C)nc2cc(C=CC(=O)NO)ccn12 [Compound 37, 3-(2-tert-Butyl-3-{[(3,3-dimethyl-butyl)-methyl-amino]-methyl}-imidazo[1,2-a]pyridin 7-yl)-N-hydroxy-acrylamide] | 0.27 µM | 0.73 µM
CCCN(Cc1c(C)nc2cc(C=CC(=O)NO)ccn12)CC(C)(C)C [Compound 38, 3-(3-{[(2,2-Dimethyl-propyl)-propyl-amino]-methyl}-2-methyl-imidazo[1,2-a]pyridin-7-yl)-N-hydroxy-acrylamide] | 0.13 µM | 0.7 µM
CCN(Cc1c(C)nc2cc(C=CC(=O)NO)ccn12)CC(C)(C)C [Compound 39, 3-(3-{[(2,2-Dimethyl-propyl)-ethyl-amino]-methyl}-2-methyl-imidazo[1,2-a]pyridin-7-yl)-N-hydroxy-acrylamide] | 0.05 µM | 0.6 µM
CCCCc1nc2cc(C=CC(=O)NO)ccn2c1CN(CC)CC(C)C [Compound 40, 3-(2-Butyl-3-[(ethyl-isobutyl-amino)-methyl]-imidazo[1,2-a]pyridin-7-yl}-N-hydroxy-acrylamide] | 0.09 µM | 0.57 µM
CCCCc1nc2cc(C=CC(=O)NO)ccn2c1CN(CC)CCC(C)C [Compound 42, 3-(2-Butyl-3-{[ethyl-(3-methyl-butyl)-amino]-methyl}-imidazo[1,2-a]pyridin-7-yl)-N-hydroxy-acrylamide] | 0.02 µM | 0.09 µM
CCCCc1nc2cc(C=CC(=O)NO)ccn2c1CN(CC)CC(C)(C)C [Compound 43, 3-(2-Butyl-3-{[(2,2-dimethyl-propyl)-ethyl-amino]-methyl}-imidazo[1,2-a]pyridin-7-yl)-N-hydroxy-acrylamide] | 0.16 µM | 0.95 µM
CCCCc1nc2cc(C=CC(=O)NO)ccn2c1CN(CC)CC(C)CCC (centres unmarked) [Compound 44, 3-(2-Butyl-3-{[ethyl-(2-methyl-pentyl)-amino]-methyl}-imidazo[1,2-a]pyridin-7-yl)-N-hydroxy-acrylamide] | 0.08 µM | 0.49 µM
CCCCc1nc2cc(C=CC(=O)NO)ccn2c1CN(CC)CCC(C)(C)C [Compound 45, 3-(2-Butyl-3-{[(3,3-dimethyl-butyl)-ethyl-amino]-methyl)-imidazo[1,2-a]pyridin-7-yl)-N-hydroxy-acrylamide] | 0.03 µM | 0.14 µM
CCCCc1nc2cc(C=CC(=O)NO)ccn2c1CN(CC)CC(CC)CC [Compound 46, 3-(2-Butyl-3-{[ethyl-(2-ethyl-butyl)-amino]-methyl}-imidazo[1,2-a]pyridin-7-yl)-N-hydroxy-acrylamide] | 0.15 µM | 0.39 µM
CCCCc1nc2cc(C=CC(=O)NO)ccn2c1CN(CC)CCC(C)CC(C)(C)C (centres unmarked) [Compound 47, 3-(2-Butyl-3-{[ethyl-(3,5,5-trimethyl-hexyl)-amino]-methyl}-imidazo[1,2-a]pyridin-7-yl)-N-hydroxy-acrylamide] | 0.2 µM | 0.53 µM
CCCc1nc2cc(C=CC(=O)NO)ccn2c1CN(CC)CCC(C)C [Compound 51, 3-(3-{[Ethyl-(3-methyl-butyl)-amino]-methyl}-2-propyl-imidazo[1,2-a]pyridin-7-yl)-N-hydroxy-acrylamide] | 0.03 µM | 0.08 µM
CCCc1nc2cc(C=CC(=O)NO)ccn2c1CN(CC)CCC(C)(C)C [Compound 52, 3-(3-{[(3,3-Dimethyl-butyl)-ethyl-amino]-methyl}-2-propyl-imidazo[1,2-a]pyridin-7-yl)-N-hydroxy-acrylamide] | 0.02 µM | 0.07 µM
CCCCCc1nc2cc(C=CC(=O)NO)ccn2c1CNC(C)(C)C [Compound 53, 3-[3-(tert-Butylamino-methyl)-2-pentyl-imidazo[1,2-a]pyridin-7-yl]-N-hydroxy-acrylamide] | 0.02 µM | 0.07 µM
CCCCCc1nc2cc(C=CC(=O)NO)ccn2c1CN(CC)CCCC [Compound 54, 3-{3-[(Butyl-ethyl-amino)-methyl]-2-pentyl-imidazo[1,2-a]pyridin-7-yl}-N-hydroxy-acrylamide] | 0.04 µM | 0.15 µM
CCCCCc1nc2cc(C=CC(=O)NO)ccn2c1CN(CC)CCC(C)C [Compound 55, 3-(3-{(Ethyl-(3-methyl-butyl)-amino]-methyl}-2-pentyl-imidazo[1,2-a]pyridin-7-yl)-N-hydroxy-acrylamide] | 0.03 µM | 0.14 µM
CCCCCc1nc2cc(C=CC(=O)NO)ccn2c1CN(CC)CCC(C)(C)C [Compound 56, 3-(3-{[(3,3-Dimethyl-butyl)-ethyl-amino]-methyl}-2-pentyl-imidazo[1,2-a]pyridin-7-yl)-N-hydroxy-acrylamide] | 0.03 µM | 0.15 µM
CCCCN(CC)Cc1c(CCC)nc2cc(C=CC(=O)NO)ccn12 [Compound 57, 3-{3-[(Butyl-ethyl-amino)-methyl]-2-propyl-imidazo[1,2-a]pyridin-7-yl}-N-hydroxy-acrylamide] | 0.04 µM | 0.16 µM
CC(C)Cc1nc2cc(C=CC(=O)NO)ccn2c1CNC(C)(C)C [Compound 58, 3-[3-(tert-Butylamino-methyl)-2-isobutyl-imidazo[1,2-a]pyridin-7-yl]-N-hydroxy-acrylamide] | 0.05 µM | 0.21 µM
CCCCN(CC)Cc1c(CC(C)C)nc2cc(C=CC(=O)NO)ccn12 [Compound 59, 3-{3-[(Butyl-ethyl-amino)-methyl]-2-isobutyl-imidazo[1,2-a]pyridin-7-yl}-N-hydroxy-acrylamide] | 0.04 µM | 0.15 µM
CCN(CCC(C)(C)C)Cc1c(CC(C)C)nc2cc(/C=C/C(=O)NO)ccn12 [Compound 61] | 0.03 µM | 0.17 µM
CCc1nc2cc(C=CC(=O)NO)ccn2c1CNC(C)(C)C [Compound 62, 3-[3-(tert-Butylamino-methyl)-2-ethyl-imidazo[1,2-a]pyridin-7-yl]-N-hydroxy-acrylamide] | 0.03 µM | 0.26 µM
